According to patent US7932262B2 (Novartis AG, priority 2006, dated 2011):
Like-named read-outs stand apart in the source and are kept apart here.

How the values were obtained:
PDK1 kinase = target: T1, PDK1 kinase (Homo sapiens, UniProt O15530); experiment: PDK1 Kinase Alpha Screen Assay; type: biochemical; conditions: read-out: PDK1 IC50
T1 sequence (O15530 1-556): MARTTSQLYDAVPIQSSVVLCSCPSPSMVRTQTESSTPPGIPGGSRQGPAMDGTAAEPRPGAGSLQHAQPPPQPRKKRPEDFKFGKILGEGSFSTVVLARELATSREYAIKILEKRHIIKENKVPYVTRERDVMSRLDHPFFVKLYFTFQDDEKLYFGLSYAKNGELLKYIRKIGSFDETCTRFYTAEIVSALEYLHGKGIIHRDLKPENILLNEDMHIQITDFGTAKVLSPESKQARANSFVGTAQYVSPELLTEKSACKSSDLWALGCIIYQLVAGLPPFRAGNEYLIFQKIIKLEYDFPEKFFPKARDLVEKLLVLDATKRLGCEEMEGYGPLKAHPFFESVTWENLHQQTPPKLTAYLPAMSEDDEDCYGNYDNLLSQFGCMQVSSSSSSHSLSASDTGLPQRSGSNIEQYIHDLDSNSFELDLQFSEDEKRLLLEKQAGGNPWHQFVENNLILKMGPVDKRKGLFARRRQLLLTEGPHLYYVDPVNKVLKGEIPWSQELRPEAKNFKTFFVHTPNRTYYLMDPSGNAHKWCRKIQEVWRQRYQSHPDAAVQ
How it was run: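 Kinase inhibition measured as loss of AlphaScreen signal from antibody recognition of phosphorylated biotin-PDK1-4 peptide. Reactions contain 10 uM ATP and 50 nM peptide, run 3-18 hours before EDTA quench and overnight bead development at room temperature.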

PC-3 cells = experiment: Cell Proliferation Assay (Cell Titer Glo), PC-3 cell line; type: cell-based; conditions: Homo sapiens
How it was run: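 Cell Titer Glo luminescence, read after fresh medium replaced the dosing medium, gave viability of PC-3 cells plated at 1000 cells/well. Compounds, 1:3 serially diluted in DMSO at 500× and then in medium, were added after 3-5 h adhesion and incubated 3 days at 37° C.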

[1] = tested on: pAkt308 (phosphorylation of Akt at T308) in PC-3 cells; experiment: pAkt T308 ECL Assay in PC-3 cells; type: cell-based; conditions: Homo sapiens, 6 h, six hours with compound, read-out: PAKT308 PC3 IC50
Protocol: VI. The pAkt^T308 ECL Assay Protocol
On Day 1, PC-3 cells were seeded at 15,000 cells/well in 100 μL/well ([…]) growth media into black-walled, clear bottom, poly-L-lysine coated plates. The cells were incubated overnight in a 37° C., 5% CO2 incubator.
On Day 2, a MSD ECL plate was blocked for two hours with 150 μL per well of 3% MSD blocker A.
Test compounds were diluted to 500× in DMSO and then were subjected to further serial dilution using a BioMek 2000 instrument. DMSO diluted compounds were then diluted into growth media and then added to the cell plates.
The cell plates incubated with compounds for six hours in a 37° C., 5% CO2 incubator after which the growth medium was removed and 55 μl of MSD lysis buffer was added to cell plates on ice. The plates were lysed on ice for five minutes followed by 15 minutes of vigorous shaking on a plate shaker at 4° C. The blocked MSD assay plates were washed twice with 1×MSD wash buffer followed by the addition of cell lysate as follows: 30 μl of cell lysate was added to the pAkt308 plates and 13 μl of lysate+12 μl lysis buffer was added to the tAkt plates. The plates were then sealed and shaken at 4° C. overnight.
On Day 3, the MSD plates were washed four times with 1×MSD wash buffer then, 25 μl/well of MSD SULFO-TAG antibodies diluted to 10 nM final concentration in 1% blocker. A buffer was added to the antibody diluent which was added to assay plates. The plates were then sealed and incubated at RT for 1.5 hour. The plates were then washed twice with 1×MSD wash buffer followed by the addition of 150 μl/well of 1.5×MSD read buffer. The plates were read immediately after the addition of read buffer using a Trilux instrument. […]

A2780 cells = experiment: Cell Proliferation Assay (Cell Titer Glo), A2780; type: cell-based; conditions: Homo sapiens; cell proliferation, A2780 cells; read-out: CPEC50 A2780
How it was run: (§1)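 Following a 3-day compound exposure (37° C., 5% CO2) of A2780 or PC3MM cells plated at 1000 per well, viability was measured by Cell Titer Glo luminescence in fresh medium, read 10 min after reagent addition.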

PC3MM cells = experiment: Cell Proliferation Assay (Cell Titer Glo), PC3MM; type: cell-based; conditions: cell proliferation, PC3MM cells; read-out: CPEC50 PC3MM
How it was run: as §1

[2] = PC-3, 72 h, PC-3 cells, 3 days incubation, read-out: CP EC50 PC3
[3] = PC-3, cell proliferation, PC3 cells, read-out: CPEC50 PC3

COc1cc(Nc2ncc3ccc(OC4CCNCC4)cc3n2)cc(OC)c1 [Compound 55, (3,5-Dimethoxy-phenyl)-[7-(piperidin-4-yloxy)-quinazolin-2-yl]-amine]
< 5 µM: IC50 (PDK1 kinase) | EC50 (PC-3 cells; [2]) | IC50 [1]

CC(C)NS(=O)(=O)c1ccc(Nc2ncc3ccc(OC4CCN(C(C)C)CC4)cc3n2)cc1 [Compound 58, N-Isopropyl-4-[7-(1-isopropyl-piperidin-4-yloxy)-quinazolin-2-ylamino]-benzenesulfonamide]
< 5 µM: IC50 (PDK1 kinase) | EC50 (PC-3 cells; [2]) | IC50 [1]

Fc1ccc(Nc2ncc3ccc(OC4CCNCC4)cc3n2)cc1 [Compound 59, (4-Fluoro-phenyl)-[7-(piperidin-4-yloxy)-quinazolin-2-yl]-amine]
< 5 µM: IC50 (PDK1 kinase) | EC50 (PC-3 cells; [2]) | IC50 [1]

CNS(=O)(=O)Cc1ccc(Nc2ncc3ccc(OC4CCN(C(C)C)CC4)cc3n2)cc1 [Compound 61, C-{4-[7-(1-Isopropyl-piperidin-4-yloxy)-quinazolin-2-ylamino]-phenyl}-N-methyl-methanesulfonamide]
< 5 µM: IC50 (PDK1 kinase) | EC50 (PC-3 cells; [2]) | IC50 [1]

O=S(=O)(c1ccc(Nc2ncc3cccc(OC4CCNCC4)c3n2)cc1)N1CCOCC1 [Compound 771, N-(4-(morpholinosulfonyl)phenyl)-8-(piperidin-4-yloxy)quinazolin-2-amine]
< 5 µM: IC50 (PDK1 kinase; PDK1 Kinase Alpha Screen Assay) | EC50 (A2780 cells) | EC50 (PC-3 cells; [3]) | EC50 (PC3MM cells)

CC(C)N1CCC(Oc2cccc3cnc(Nc4ccc(S(=O)(=O)N5CCOCC5)cc4)nc23)CC1 [Compound 772, 8-(1-isopropylpiperidin-4-yloxy)-N-(4-(morpholinosulfonyl)-phenyl)quinazolin-2-amine]
< 5 µM: IC50 (PDK1 kinase; PDK1 Kinase Alpha Screen Assay) | EC50 (A2780 cells) | EC50 (PC-3 cells; [3]) | EC50 (PC3MM cells)

CC(C)NS(=O)(=O)c1ccc(Nc2ncc3cccc(OC4CCNCC4)c3n2)cc1 [Compound 779, N-isopropyl-4-(8-(piperidin-4-yloxy)quinazolin-2-ylamino)benzenesulfonamide]
< 5 µM: IC50 (PDK1 kinase; PDK1 Kinase Alpha Screen Assay) | EC50 (A2780 cells) | EC50 (PC-3 cells; [3]) | EC50 (PC3MM cells)

COCCNS(=O)(=O)c1ccc(Nc2ncc3cccc(OC4CCNCC4)c3n2)cc1 [Compound 780, N-(2-methoxyethyl)-4-(8-(piperidin-4-yloxy)quinazolin-2-ylamino)benzenesulfonamide]
< 5 µM: IC50 (PDK1 kinase; PDK1 Kinase Alpha Screen Assay) | EC50 (A2780 cells) | EC50 (PC-3 cells; [3]) | EC50 (PC3MM cells)

O=S(=O)(NC1CC1)c1ccc(Nc2ncc3cccc(OC4CCNCC4)c3n2)cc1 [Compound 781, N-cyclopropyl-4-(8-(piperidin-4-yloxy)quinazolin-2-ylamino)benzenesulfonamide]
< 5 µM: IC50 (PDK1 kinase; PDK1 Kinase Alpha Screen Assay) | EC50 (A2780 cells) | EC50 (PC-3 cells; [3]) | EC50 (PC3MM cells)

CC(C)N1CCC(Oc2ccc3cnc(Nc4ccc(S(N)(=O)=O)cc4)nc3c2)CC1 [Compound 794, 4-(7-(1-isopropylpiperidin-4-yloxy)quinazolin-2-ylamino)benzenesulfonamide]
< 5 µM: IC50 (PDK1 kinase; PDK1 Kinase Alpha Screen Assay) | EC50 (A2780 cells) | EC50 (PC-3 cells; [3]) | EC50 (PC3MM cells)

CC(C)N1CCC(c2c(O)ccc3cnc(Nc4ccc(S(N)(=O)=O)cc4)nc23)CC1 [Compound 795, 4-(7-hydroxy-8-(1-isopropylpiperidin-4-yl)quinazolin-2-ylamino)benzenesulfonamide]
< 5 µM: IC50 (PDK1 kinase; PDK1 Kinase Alpha Screen Assay) | EC50 (A2780 cells) | EC50 (PC-3 cells; [3]) | EC50 (PC3MM cells)

CC(C)NC(=O)c1ccc(Nc2ncc3cccc(OC4CCN(C(C)C)CC4)c3n2)cc1 [Compound 797, N-isopropyl-4-(8-(1-isopropylpiperidin-4-yloxy)quinazolin-2-ylamino)benzamide]
< 5 µM: IC50 (PDK1 kinase; PDK1 Kinase Alpha Screen Assay) | EC50 (A2780 cells) | EC50 (PC-3 cells; [3]) | EC50 (PC3MM cells)

Cn1cc(-c2ccc3cnc(Nc4ccc(S(N)(=O)=O)cc4)nc3c2)cn1 [Compound 799, 4-(7-(1-methyl-1H-pyrazol-4-yl)quinazolin-2-ylamino)benzenesulfonamide]
< 5 µM: IC50 (PDK1 kinase; PDK1 Kinase Alpha Screen Assay) | EC50 (A2780 cells) | EC50 (PC-3 cells; [3]) | EC50 (PC3MM cells)

NS(=O)(=O)c1ccc(Nc2ncc3ccc(-c4cccnc4F)cc3n2)cc1 [Compound 800, 4-(7-(2-fluoropyridin-3-yl)quinazolin-2-ylamino)benzenesulfonamide]
< 5 µM: IC50 (PDK1 kinase; PDK1 Kinase Alpha Screen Assay) | EC50 (A2780 cells) | EC50 (PC-3 cells; [3]) | EC50 (PC3MM cells)

O=S(=O)(NCCN1CCCC1)c1ccc(Nc2ncc3cccc(OC4CCNCC4)c3n2)cc1 [Compound 810, 4-(8-(piperidin-4-yloxy)quinazolin-2-ylamino)-N-(2-(pyrrolidin-1-yl)ethyl)benzenesulfonamide]
< 5 µM: IC50 (PDK1 kinase; PDK1 Kinase Alpha Screen Assay) | EC50 (A2780 cells) | EC50 (PC-3 cells; [3]) | EC50 (PC3MM cells)

CC(C)CN1CCC(Oc2cccc3cnc(Nc4ccc(S(N)(=O)=O)cc4)nc23)CC1 [Compound 816, 4-(8-(1-isobutylpiperidin-4-yloxy)quinazolin-2-ylamino)benzenesulfonamide]
< 5 µM: IC50 (PDK1 kinase; PDK1 Kinase Alpha Screen Assay) | EC50 (A2780 cells) | EC50 (PC-3 cells; [3]) | EC50 (PC3MM cells)

COCCNc1ccc(-c2cccc3cnc(Nc4ccc(S(N)(=O)=O)cc4)nc23)cn1 [Compound 825, 4-(8-(6-(2-methoxyethylamlno)pyridin-3-yl)quinazoln-2-ylamino)benzenesulfonamide]
< 5 µM: IC50 (PDK1 kinase; PDK1 Kinase Alpha Screen Assay) | EC50 (A2780 cells) | EC50 (PC-3 cells; [3]) | EC50 (PC3MM cells)

CN1CCN(c2ccc(-c3cccc4cnc(Nc5ccc(S(N)(=O)=O)cc5)nc34)cn2)CC1 [Compound 827, 4-(8-(6-(4-methylpiperazin-1-yl)pyridin-3-yl)quinazolin-2-ylamino)benzenesulfonamide]
< 5 µM: IC50 (PDK1 kinase; PDK1 Kinase Alpha Screen Assay) | EC50 (A2780 cells) | EC50 (PC-3 cells; [3]) | EC50 (PC3MM cells)

NS(=O)(=O)c1ccc(Nc2ncc3cccc(-c4ccc(NCCN5CCCC5)nc4)c3n2)cc1 [Compound 830, 4-(8-(6-(2-(pyrrolidin-1-yl)ethylamino)pyridin-3-yl)-quinazolin-2-ylamino)benzenesulfonamide]
< 5 µM: IC50 (PDK1 kinase; PDK1 Kinase Alpha Screen Assay) | EC50 (A2780 cells) | EC50 (PC-3 cells; [3]) | EC50 (PC3MM cells)

CN1CCC(Nc2ccc3cnc(Nc4ccc(S(N)(=O)=O)cc4)nc3c2)CC1 [Compound 843, 4-(7-(1-methylpiperidin-4-ylamino)quinazolin-2-ylamino)benzenesulfonamide]
< 5 µM: IC50 (PDK1 kinase; PDK1 Kinase Alpha Screen Assay) | EC50 (A2780 cells) | EC50 (PC-3 cells; [3]) | EC50 (PC3MM cells)

NS(=O)(=O)c1ccc(Nc2ncc3cc(Br)cc(OC4CCNCC4)c3n2)cc1 [Compound 846, 4-(6-bromo-8-(piperidin-4-yloxy)quinazolin-2-ylamino)benzenesulfonamide]
< 5 µM: IC50 (PDK1 kinase; PDK1 Kinase Alpha Screen Assay) | EC50 (A2780 cells) | EC50 (PC-3 cells; [3]) | EC50 (PC3MM cells)

NS(=O)(=O)c1ccc(Nc2ncc3cc(Br)cc(OC4CN5CCC4CC5)c3n2)cc1 (stereo not drawn) [Compound 847, 4-(6-bromo-8-(quinuclidin-3-yloxy)quinazolin-2-ylamino)benzenesulfonamide]
< 5 µM: IC50 (PDK1 kinase; PDK1 Kinase Alpha Screen Assay) | EC50 (A2780 cells) | EC50 (PC-3 cells; [3]) | EC50 (PC3MM cells)
